2 compounds from patent US20030224978A1, “Compounds and methods for modulating apoptosis” (McGill University, priority 1996, published 2003) can be followed below.

“Also recorded” adds a separate entry of the source. Some results are limits rather than exact numbers.

In one test the test system is HUVEC. In kind it is cell-based, human. Particulars: 3 h.
A further test deals with Melanoma ME 115 cells. Kind of test: Disruption of melanoma cell adhesion, pan-cadherin immunostaining. In kind it is cell-based, human. The note with it: 500 μg/mL, 48 hours. The procedure: Melanoma ME 115 cells (kindly provided by Meenhard Herlyn, Wistar Institute, Philadelphia, Pa.) were plated on glass coverslips and cultured for 24 hours in 50% keratinocyte growth medium (Clonetics, San Diego, Calif.) and 50% L15. Fresh medium containing the cyclic peptides (final concentration 500 μg/mL media) N-Ac-CHAVC-NH2 (SEQ ID NO:10) or N-Ac-CHGVC-NH2 (SEQ ID NO:20) was then added. Following 24 hours of culture in the presence of the peptides, the medium was removed and fresh medium containing the peptides was added. The cells were fixed 24 hours later with cold methanol and stored in phosphate buffered saline (PBS).
Coverslips were blocked for 1 hour in 3% ovalbumin/PBS and incubated for a further 1 hour in the presence of rabbit pan-cadherin antibody (Sigma Chemical Co., St. Louis, Mo.) diluted 1:500. Primary and secondary antibodies were diluted in PBS containing 6% normal goat serum. Following incubation in the primary antibody, coverslips were washed 3 times for 5 minutes each in PBS and incubated for 1 hour in goat anti-rabbit immunoglobulin G conjugated to fluorescein (Kiekegard and Perry, South San Francisco, Calif.) diluted 1:100. Following a further wash in PBS (3×5 minutes) coverslips were mounted in Vectashield (Vector Labs, Burlingame, Calif.) and viewed with a Zeiss infinity corrected microscope.

The test system of test [1] is SKOV3 human ovarian cancer cells. Kind of test: Induction of apoptosis / cell death in SKOV3 cells, in situ cell death detection kit. In kind it is cell-based. The note with it: 0.5 or 0.25 mg/mL, 48 hours. The procedure:
Direct assays of induction of apoptosis may be performed using any standard technique. For example, cadherin-expressing cells (e.g., SKOV3 human ovarian cancer cells) may be plated onto poly-L-lysine coated glass slides and cultured with 500 μg/mL of modulating agent for 24-48 hours. Cells may then be fixed and assayed for cell death using any of a variety of well known methods. For example, an in situ cell death detection kit may be purchased from Boehringer Mannheim (Laval, Quebec) and used according to the manufacturer's instructions.
SKOV3 human ovarian cancer cells cultured in the presence of either N-Ac-CHAVC-NH2 (SEQ ID NO:10) or a control peptide (N-Ac-CHGVC-NH2; SEQ ID NO:20) in MEM with 10% FBS were plated onto poly-L-lysine coated glass slides. The cells were cultured for 24 or 48 hours and fixed with 4% paraformaldehyde for 30 minutes at room temperature. The slides were then washed three times with PBS and assessed for cell death. Cells were treated with 0.5 or 0.25 mg/mL of N-Ac-CHAVC-NH2 (SEQ ID NO:10) or the control N-Ac-CHGVC-NH2 (SEQ ID NO:20), as indicated. Cell death was measured as described by Gavrieli et al, J. Cell. Biol. 119:493-501, 1992 and using the In situ cell death detection kit (Boehringer Mannheim; Laval, Quebec).

Another test concerns NRK cells. Kind of test: Disruption of normal rat kidney (NRK) cell adhesion and E-cadherin immunostaining. In kind it is cell-based. The note with it: 1 mg/mL, 48 hours. The procedure:
Within another such assay, the effect of a modulating agent on normal rat kidney (NRK) cells may be evaluated. According to a representative procedure, NRK cells (ATCC #1571-CRL) may be plated at 10-20,000 cells per 35 mm tissue culture flasks containing DMEM with 10% FCS and sub-cultured periodically (Laird et al., J. Cell Biol. 131:1193-1203, 1995). Cells may be harvested and replated in 35 mm tissue culture flasks containing 1 mm coverslips and incubated until 50-65% confluent (24-36 hours). At this time, coverslips may be transferred to a 24-well plate, washed once with fresh DMEM and exposed to modulating agent at a concentration of, for example, 1 mg/mL for 24 hours. Fresh modulating agent may then be added, and the cells left for an additional 24 hours. Cells may be fixed with 100% methanol for 10 minutes and then washed three times with PBS. Coverslips may be blocked for 1 hour in 2% BSA/PBS and incubated for a further 1 hour in the presence of mouse anti-E-cadherin antibody (Transduction Labs, 1:250 dilution). Primary and secondary antibodies may be diluted in 2% BSA/PBS. Following incubation in the primary antibody, coverslips may be washed three times for 5 minutes each in PBS and incubated for 1 hour with donkey anti-mouse antibody conjugated to fluorescein (diluted 1:200). Following further washes in PBS (3×5 min) coverslips can be mounted and viewed by confocal microscopy.
In the absence of modulating agent, NRK cells form characteristic tightly adherent monolayers with a cobblestone morphology in which cells display a polygonal shape. NRK cells that are treated with a modulating agent that disrupts E-cadherin mediated cell adhesion may assume a non-polygonal and elongated morphology (i.e., a fibroblast-like shape) within 48 hours of treatment with 1 mg/mL of modulating agent. Gaps appear in confluent cultures of such cells. In addition, 1 mg/mL of such a modulating agent reproducibly induces a readily apparent reduction in cell surface staining of E-cadherin, as judged by immunofluorescence microscopy (Laird et al., J. Cell Biol. 131:1193-1203, 1995), of at least 75% within 48 hours.
NRK cells (ATCC #1571-CRL) were plated at 10-20,000 cells per 35 mm tissue culture flasks containing DMEM with 10% FCS and sub-cultured periodically (Laird et al., J. Cell Biol. 131:1193-1203, 1995). Cells were harvested and replated in 35 mm tissue culture flasks containing […] coverslips and incubated until 50-65% confluent (24-36 hours). At this time, coverslips were transferred to a 24-well plate, washed once with fresh DMEM and exposed to cyclic peptide solutions (N-Ac-CHAVC-NH2 (SEQ ID NO:10) and N-Ac-CHGVC-NH2 (SEQ ID NO:20)) at a concentration of 1 mg/mL for 24 hours. Fresh peptide solutions were then added and the cells were left for an additional 24 hours. […]

Another test has as its target T1, N-CAM (Homo sapiens, UniProt P13591).
T1 construct: expressed in transfected cells; host or cells: 3T3 cells
Kind of test: Neurite outgrowth of mouse cerebellar neurons on 3T3 cells expressing N-CAM (Example 2). In kind it is cell-based. Particulars: 500 μg/mL.

Broadly, the IC50 is the concentration at which inhibition is half-maximal.

T1 sequence (P13591 20-858, species assumed): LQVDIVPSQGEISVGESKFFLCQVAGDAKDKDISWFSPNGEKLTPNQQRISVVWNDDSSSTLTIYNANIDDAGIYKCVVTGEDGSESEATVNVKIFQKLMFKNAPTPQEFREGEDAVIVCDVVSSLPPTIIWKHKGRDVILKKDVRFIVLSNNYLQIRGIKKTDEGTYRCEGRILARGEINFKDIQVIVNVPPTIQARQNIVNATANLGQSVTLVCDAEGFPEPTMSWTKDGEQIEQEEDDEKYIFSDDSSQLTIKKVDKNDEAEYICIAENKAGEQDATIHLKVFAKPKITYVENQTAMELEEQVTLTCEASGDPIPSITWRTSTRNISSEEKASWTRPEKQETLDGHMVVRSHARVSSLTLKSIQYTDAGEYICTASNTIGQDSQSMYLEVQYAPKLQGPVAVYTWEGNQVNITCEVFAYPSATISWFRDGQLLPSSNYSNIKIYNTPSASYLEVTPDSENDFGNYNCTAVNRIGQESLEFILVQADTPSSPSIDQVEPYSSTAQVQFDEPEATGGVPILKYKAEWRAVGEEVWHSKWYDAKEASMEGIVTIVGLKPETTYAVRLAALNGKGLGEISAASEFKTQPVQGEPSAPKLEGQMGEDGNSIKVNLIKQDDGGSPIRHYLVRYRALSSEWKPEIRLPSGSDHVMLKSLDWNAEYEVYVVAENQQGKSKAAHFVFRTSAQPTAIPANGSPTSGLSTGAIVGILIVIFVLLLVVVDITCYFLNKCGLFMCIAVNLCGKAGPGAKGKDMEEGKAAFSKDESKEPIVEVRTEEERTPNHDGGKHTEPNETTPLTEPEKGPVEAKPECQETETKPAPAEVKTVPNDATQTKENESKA

In the test with HUVEC, `CC(=O)N[C@H]1CSSC[C@@H](C(N)=O)NC(=O)[C@H](C(C)C)NC(=O)[C@H](C)NC(=O)[C@H](Cc2c[nH]cn2)NC1=O` [N-Ac-CHAVC-NH2, N-Ac-Cys-His-Ala-Val-Cys-NH2] had an IC50 above 100 µM. In the test with Melanoma ME 115 cells, the “cadherin staining in melanoma ME115 cells” value was “absence of cell membrane staining and the appearance of bright intracellular vesicular staining; also recorded: cadherin is localized in intracellular vesicles”; the “effect on melanoma cell adhesion” value is reported as “disrupts melanoma cell adhesion”. Further, the “cell death of SKOV3 cells” value in test [1] is on record as “the cells are dead; also recorded: cell death”. In the test on NRK cells, the “E-cadherin expression in NRK cells (immunofluorescence)” value is listed as “greatly reduced levels of E-cadherin” and the “effect on NRK cell adhesion” value is recorded as “disrupted NRK cell adhesion; also recorded: retract from one another”. In addition, the “effect on neurite outgrowth on 3T3 cells expressing N-CAM” value on N-CAM is “did not inhibit neurite outgrowth”.
For the compound `CC(=O)N[C@H]1CSSC[C@@H](C(N)=O)NC(=O)[C@H](C(C)C)NC(=O)CNC(=O)[C@H](Cc2c[nH]cn2)NC1=O` [N-Ac-CHGVC-NH2, reference compound], the IC50 in the test with HUVEC is above 100 µM. Moreover, the “cadherin staining in melanoma ME115 cells” value in the test with Melanoma ME 115 cells is given as “displayed cadherin staining all over the cell membrane”. In addition, in the test with NRK cells, the “E-cadherin expression in NRK cells (immunofluorescence)” value is given as “expressed E-cadherin” and the “effect on NRK cell adhesion” value is reported as “had no affect on cell adhesion”.
